Assay: Testing of lysozyme amount for efficacy (method not described)
Settings: 0.08 g lysozyme per kg of composition

With lysozyme the “lowest amount exhibiting some efficacy” value was 80 ppm.

Reference: US20210368788A1, “METHODS FOR USING ANTIMICROBIAL COMPOSITIONS” (Next Science IP Holdings Pty Ltd, priority 2016, published 2021)
